Patent US20100216724A1, “USE OF F[…] (196-203 ) AS A […] AGENT” (priority 2007, published 2010)
Where no end group is shown, it is not given here.

Legend:
HIV-1IIIB = experiment: HIV-1 antiviral assay (CPE reduction, MTS) in CEM-SS cells; format: cell-based; settings: test peptide 10 micrograms per ml, 6 days post-infection
[1] = Cytotoxicity testing (CellTiter 96) in MRC-5 cells; format: cell-based; settings: human, MRC-5 cells (human embryonal lung fibroblasts), 6 days incubation, read-out: % Cell viability
Method: Ganciclovir was used as positive control. […] For cytotxicity testing, MRC-5 cells were seeded at 2,500 cells/well in 96 well plates using growth medium. […] The following day, peptide were added and tested in duplicates. After a 6 days incubation period, cell viability was measured using CellTiter 96 Solution (Promega). Plates were incubated for additional 4 hours at 37° C.

Pseudomonas aeruginosa = Pseudomonas aeruginosa assay; format: cell-based; settings: Pseudomonas aeruginosa growth; peptide 10 micrograms per ml; read visually
Streptococcus pneumoniae = Streptococcus pneumoniae assay; format: cell-based; settings: Streptococcus pneumoniae growth; peptide 10 micrograms per ml; read visually
MRSA = MRSA growth; peptide 10 micrograms per ml; read visually
in vitro = settings: human, HepG2-2.2.15 cells
[2] = Cytotoxicity (MTS cell viability) in the HIV-1 assay; settings: human, CEM-SS cells

Molecule | % CPE reduction in HIV-1 infected CEM-SS cells (HIV-1IIIB) | viability at 144 h [1] | % inhibition (Pseudomonas aeruginosa) | % inhibition (Streptococcus pneumoniae) | % inhibition (MRSA) | viability at 144 h, 10 micrograms per ml (in vitro) | viability at 10 micrograms per ml [2]
Cc1cn([C@H]2C[C@H](N=[N+]=[N-])[C@@H](CO)O2)c(=O)[nH]c1=O [AZT] | 99% |  |  |  |  |  | 
SRNRCNDQ-NH2 |  | 100% | 0.0% | 0.0% | 0.0% | 100% | 100%
